Here are results for 13 molecules from US8557805B2, “Fused ring compound and use thereof” (Takeda Pharmaceutical Company Limited, priority 2008, dated 2013).

Data set [1] concerns the target T1, human liver GK (GST-hLGK1) (Homo sapiens, UniProt P35557).
T1 construct: with a BamHI site added to immediately before the initiation codon; made in house; host or cells: Escherichia coli BL21 (Stratagene), plasmid pGEX6P-2/hLGK1
T1 sequence (P35557 1-464 isoform P35557-3): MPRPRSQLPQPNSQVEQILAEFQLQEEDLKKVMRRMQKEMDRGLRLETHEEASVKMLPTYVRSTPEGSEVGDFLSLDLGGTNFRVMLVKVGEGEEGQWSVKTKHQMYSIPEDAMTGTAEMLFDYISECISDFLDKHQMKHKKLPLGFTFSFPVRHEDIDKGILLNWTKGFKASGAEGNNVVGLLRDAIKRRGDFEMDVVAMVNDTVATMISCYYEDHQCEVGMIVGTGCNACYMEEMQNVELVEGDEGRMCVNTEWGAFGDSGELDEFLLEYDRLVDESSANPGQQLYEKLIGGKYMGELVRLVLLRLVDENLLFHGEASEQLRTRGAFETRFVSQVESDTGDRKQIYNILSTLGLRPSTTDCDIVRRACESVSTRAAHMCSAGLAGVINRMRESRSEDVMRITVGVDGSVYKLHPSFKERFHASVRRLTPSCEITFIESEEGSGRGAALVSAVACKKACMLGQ
Put plainly: Determination of GK activity value (Mant-ATP to Mant-ADP conversion, capillary electrophoresis). The format is biochemical. The conditions noted are these: reaction started with 25 mM D-glucose solution, 37° C., 60 min, concentration at midpoint between maximum activity value and control group activity value. Here is the method:
Plasmid DNA to be used for the expression of a protein (GST-hLGK1) containing GST (Glutathione S-transferase) added to the amino terminal of human liver GK in Escherichia coli was prepared as follows.
First, PCR was performed using human liver cDNA (Marathon Ready cDNA, Clontech Laboratories, Inc.) as a template and two kinds of synthetic DNAs (5′-[…]-3′ (SEQ ID NO: 1) and 5′-[…]-3′ (SEQ ID NO: 2)), and the obtained DNA fragment was closed using a TOPO TA Cloning Kit (Invitrogen Corporation). PCR was performed using the obtained plasmid DNA as a template and a synthetic DNA (5′-[…] CAGAG-3′ (SEQ ID NO: 3)) with a BamHI site added to immediately before the initiation codon, and a synthetic DNA (5′-[…]-3′ (SEQ ID NO: 4)) with an EcoRI site added to immediately after the stop codon. The obtained DNA fragment was subcloned to pGEX6P-2 (Amersham Biosciences K.K.) cleaved with BamHI and EcoRI to give a plasmid (pGEX6P-2/hLGK1) for expression of human liver GK.
BL21 strain (Stratagene) transformed with pGEX6P-2/hLGK1 obtained in (1) was cultured with shaking at 37° C. for 14 hr in a 200 ml Erlenmeyer flask containing 50 ml of 100 μg/ml ampicillin-containing LB medium. The culture medium (25 ml) was diluted with 225 ml of 100 μg/ml ampicillin-containing LB medium, and further cultured with shaking at 37° C. for 1 hr in a 1 L Erlenmeyer flask. After culture, the Erlenmeyer flask was cooled on ice, 125 μL of 100 mM isopropyl-thio-β-D-galactopyranoside (IPTG) was added (final concentration 50 μM), and cultured at 17° C. for 20 hr. The culture medium was centrifuged, and the obtained fungus was disrupted by ultrasonication. The object protein (GST-hLGK1) was purified from the supernatant using Glutathione Sepharose 4B (Amersham Biosciences K.K.).
A solution (5 μL) of test compound in 50% dimethyl sulfoxide was added to each well of 384 well black plate (Nalge Nunc International K.K.). Then, a solution (35 μL) obtained by diluting GST-hLGK1 obtained in (2) with measurement buffer (containing 50 mM HEPES (pH 7.4), 200 mM KCl, 5 mM MgCl2, 2.5 mM DTT and 50 μM 2′-(or-3′)-O—(N-methylanthraniloyl)adenosine 5′-triphosphate (Mant-ATP) (Jena Bioscience GmbH)) to 6 μg/mL was added to each well.
Each well was stood at 37° C. for 10 min, and 25 mM D-glucose solution (10 μL) was added to start the reaction.
Each well after the reaction was stood at 37° C. for 60 min, and the reaction was quenched by adding 25 μL of a quenching solution (containing 200 mM HEPES (pH 7.4), 20 mM MgCl2, 200 mM EDTA, 0.03% Triton-X 100, 0.3% Coating 3 reagent (Caliper Life Sciences, Inc.)).
2′-(or -3′)-O—(N-methylanthraniloyl)adenosine 5′-triphosphate (Mant-ATP, substrate) and Mant-ADP (reaction resultant product) were separated from each well after the reaction by a microchip type capillary electrophoresis apparatus 250 HTS (Caliper Life Sciences, Inc.). The reaction rate [(reaction resultant product peak height)/(reaction resultant product peak height+substrate peak height)×100(%)] was calculated from the ratio of the substrate peak height and reaction resultant product peak height obtained by fluorescence detection (excitation wavelength 355 nm, measurement wavelength 460 nm) and used as the index of GK activity.
3.5 As a control group, the reaction rate was calculated in the same manner as above except that “solution in 50% dimethyl sulfoxide (without test compound)” was used instead of “solution of test compound in 50% dimethyl sulfoxide”.
A concentration dependency curve of the test compound was drawn with the percentage obtained by dividing the reaction rate of the well added with the test compound (test compound addition group) by the reaction rate of the control group was taken as the GK activity value of the test compound, and the concentration of the test compound at the midpoint between the maximum activity value of the test compound addition group and the control group activity value is shown as EC50 value.

In the case of `CS(=O)(=O)c1ccc(Oc2ccc3[nH]c(C4=NCC(CC(=O)N5CCOCC5)S4)cc3c2)cn1` (single isomer, unassigned) [Example 69, 5-{[6-(Methylsulfonyl)pyridin-3-yl]oxy}-2-[5-(2-morpholin-4-yl-2-oxoethyl)-4,5-dihydro-1,3-thiazol-2-yl]-1H-indole], the melting point fell in the range of 167 to 168 °C. The molecule further returned an EC50 in data set [1] of 28 nM.
`CC(C)(O)CC1CN=C(c2cc3cc(Oc4ccc(S(C)(=O)=O)cn4)cc(OC4CCOCC4)c3[nH]2)S1` (centres unmarked) [Example 14, 2-Methyl-1-{2-[5-{[5-(methylsulfonyl)pyridin-2-yl]oxy}-7-(tetrahydro-2H-pyran-4-yloxy)-1H-indol-2-yl]-4,5-dihydro-1,3-thiazol-5-yl}propan-2-ol] showed a melting point of 129 to 130 °C. In addition, it took 61 nM to reach a half-maximal effect in data set [1] (EC50).
For `Cc1cc(Oc2ccc(S(C)(=O)=O)nc2)cc2cc(C3=NCC(CC(=O)N4CCOCC4)S3)[nH]c12` (centres unmarked) [Example 80, 7-Methyl-5-{[6-(methylsulfonyl)pyridin-3-yl]oxy}-2-[5-(2-morpholin-4-yl-2-oxoethyl)-4,5-dihydro-1,3-thiazol-2-yl]-1H-indole] the same measures were 152 to 154 °C and 54 nM.
Molecule `CCNC(=O)CC1CN=C(c2cc3cc(Oc4ccc(S(C)(=O)=O)nc4)ccc3[nH]2)S1` (centres unmarked) [Example 54, N-Ethyl-2-[2-(5-{[6-(methylsulfonyl)pyridin-3-yl]oxy}-1H-indol-2-yl)-4,5-dihydro-1,3-thiazol-5-yl]acetamide] displayed a melting point of 216 to 217 °C. In addition, a half-maximal response in data set [1] (EC50) required 120 nM.
For `CS(=O)(=O)c1ccc(Oc2cc(OC3CCOCC3)c3[nH]c(C4=NCC(CCO)S4)cc3c2)cc1` (centres unmarked) [Example 2, 2-(2-{5-[4-(Methylsulfonyl)phenoxy]-7-(tetrahydro-2H-pyran-4-yloxy)-1H-indol-2-yl}-4,5-dihydro-1,3-thiazol-5-yl)ethanol], in that order: 116 to 117 °C and 18 nM.
For `CS(=O)(=O)c1ccc(Oc2ccc3[nH]c(C4=NCC(CC(=O)N5CCOCC5)S4)cc3c2)cn1` (centres unmarked) [Example 58, 5-{[6-(Methylsulfonyl)pyridin-3-yl]oxy}-2-[5-(2-morpholin-4-yl-2-oxoethyl)-4,5-dihydro-1,3-thiazol-2-yl]-1H-indole] the same measures were 190 to 191 °C and 120 nM.
For `CNC(=O)CC1CN=C(c2cc3cc(Oc4ccc(S(C)(=O)=O)cn4)cc(OC4CCOCC4)c3[nH]2)S1` (centres unmarked) [Example 17, N-Methyl-2-{2-[5-{[5-(methylsulfonyl)pyridin-2-yl]oxy}-7-(tetrahydro-2H-pyran-4-yloxy)-1H-indol-2-yl]-4,5-dihydro-1,3-thiazol-5-yl}acetamide], in that order: 170 to 172 °C and 90 nM.
`CS(=O)(=O)c1ccc(Oc2cc(OC3CCOCC3)c3[nH]c(C4=NCC(CC(=O)NC5CC5)S4)cc3c2)cn1` (centres unmarked) [Example 37, N-Cyclopropyl-2-{2-[5-{[6-(methylsulfonyl)pyridin-3-yl]oxy}-7-(tetrahydro-2H-pyran-4-yloxy)-1H-indol-2-yl]-4,5-dihydro-1,3-thiazol-5-yl}acetamide] had a melting point of 175 to 176 °C. The molecule further registered a 50% effective concentration (EC50) in data set [1] of 16 nM.
For `CC(C)(O)CC1CN=C(c2cc3cc(Oc4ccc(S(C)(=O)=O)cc4)cc(OC4CCOCC4)c3[nH]2)S1` (centres unmarked) [Example 3, 2-Methyl-1-(2-{5-[4-(methylsulfonyl)phenoxy]-7-(tetrahydro-2H-pyran-4-yloxy)-1H-indol-2-yl}-4,5-dihydro-1,3-thiazol-5-yl)propan-2-ol] the same measures were 163 to 164 °C and 15 nM.
For `CCc1cc(Oc2ccc(S(C)(=O)=O)nc2)cc2cc(C3=NCC(CC(=O)N4CC[S+]([O-])CC4)S3)[nH]c12` (centres unmarked) [Example 82, 7-Ethyl-5-{[6-(methylsulfonyl)pyridin-3-yl]oxy}-2-{5-[2-(1-oxidothiomorpholin-4-yl)-2-oxoethyl]-4,5-dihydro-1,3-thiazol-2-yl}-1H-indole], in that order: 194 to 196 °C and 18 nM.
As to `CNC(=O)CC1CN=C(c2cc3cc(Oc4ccc(S(C)(=O)=O)nc4)ccc3[nH]2)S1` (centres unmarked) [Example 53, N-Methyl-2-[2-(5-{[6-(methylsulfonyl)pyridin-3-yl]oxy}-1H-indol-2-yl)-4,5-dihydro-1,3-thiazol-5-yl]acetamide], the melting point was 150 to 152 °C. In data set [1], this molecule displayed an EC50 of 130 nM.
For `COCc1ccc(Oc2cc(OC3CCOCC3)c3[nH]c(C4=NCC(CC(C)(C)O)S4)cc3c2)cn1` (centres unmarked) [Example 8, 1-{2-[5-{[6-(Methoxymethyl)pyridin-3-yl]oxy}-7-(tetrahydro-2H-pyran-4-yloxy)-1H-indol-2-yl]-4,5-dihydro-1,3-thiazol-5-yl}-2-methylpropan-2-ol], in that order: 108 to 110 °C and 18 nM.
The molecule `CNC(=O)CC1CN=C(c2cc3cc(Oc4ccc(S(C)(=O)=O)nc4)ccc3[nH]2)S1` (single isomer, unassigned) [Example 78, N-Methyl-2-[2-(5-{[6-(methylsulfonyl)pyridin-3-yl]oxy}-1H-indol-2-yl)-4,5-dihydro-1,3-thiazol-5-yl]acetamide] yielded a melting point of 178 to 180 °C. In data set [1], this molecule returned a 50% effective concentration (EC50) of 80 nM.

The term EC50 denotes the concentration that produces a half-maximal response. As a reminder, the melting point is the temperature of the solid-liquid transition.
